System: KFS cells
Assay: Cell metabolic activity assay (MTT assay)
Type: cell-based
Details: 6.25 to 100 micromolar concentration
Method: KFS cells were obtained from the Biosource Collection and Research Center (BCRC) of the Food Industry Research and Development Institute (Hsinchu, Taiwan). KFS cells were cultured in Dulbecco's modified eagle medium (DMEM) containing 10% FBS, 1.5 g/L sodium bicarbonate, 4 mM L-glutamine, 4.5 g/L glucose, 100 units/mL penicillin G, and 100 μg/mL streptomycin sulfate. All cells were incubated in a humidified environment with 5% CO2 and 37° C. The medium was refreshed every 2 days. KFS cells (2×10^4 cells/well) were seeded in 96-well plates overnight. KFS cells were exposed to different concentrations of a test drug in 100 μL of medium (for example, combination of 10 Chinese medicine ingredients). After 24 hours treatment, 10 μL of 5 mg/mL MTT (3-(4,5-dimethylthiazol-2-yl)-2,5-diphenyltetrazolium bromide) was added to each well. After incubation for 4 hours, cells were washed twice with 1×PBS. Next, 200 μL of dimethyl sulfoxide (DMSO) was added to each well. An absorbance value at 570 nm was determined for each well by using 650 nm as a reference wavelength. Compared with a control group (untreated with reagents), the absorbance may be correlated with the percentage of active cells. The cell metabolic activity rate is calculated as follows: Cell metabolic activity (%)=OD (treatment)/OD (control)×100%.

Compound | growth of keloid fibroblasts
Oc1ccc(C=Cc2cc(O)cc(O)c2)cc1 [Resveratrol] | inhibit the growth
COc1cc(/C=C/C(=O)CC(=O)/C=C/c2ccc(O)c(OC)c2)ccc1O [Curcumin] | inhibit the growth
